Measurements published in US20190031613A1, “COMPOUNDS AND METHODS FOR THEIR USE IN THE TREATMENT OF MALARIA” (University of South Florida, priority 2016, published 2019).
≈ marks a conversion by molar mass, not a printed value. Values belong to the molecule of their own block, whether it stands above or below them.

Columns and labels:
P. berghei-GFP parasites = test: in vivo efficacy, modified Thompson test; set-up: species or system mice; conditions: three daily doses days 3-5 PI, 0.5% aqueous HEC
Protocol: Prodrug 6d was orally tested for in vivo efficacy at four doses (0.3 mg/kg, 1.0 mg/kg, 3.0 mg/kg, and 10 mg/kg) in 0.5% aqueous HEC solution.

[1] = aqueous solubility at pH 2.5, UV-based assay; format: physicochemical; conditions: aqueous solution at pH 2.5, pH 2.5, aqueous buffer; read-out: aqueous solubility at acidic pH
Description: Analogous to known AOCOM ether prodrugs, AOCOM iodides were used to prepare the desired prodrugs.^39 Thus, the synthesis route to the prodrugs commences with conversion of Boc-protected amino alcohols into corresponding Boc-protected aminoalkyloxycarbonyloxymethyl (amino AOCOM) iodides (FIG. 4a). Reaction of 4-quinolinols 1c′ and with the 1d′ with the Boc-protected amino AOCOM iodides, in presence of caesium carbonate, and subsequent deprotection leads to water-soluble HCl salts 6a-d (FIG. 4b). […] The assessment of the aqueous solubility at pH 7.4 was challenging due to the limited stability of the prodrug moiety at neutral pH and was not performed. […] In addition, solid material was rapidly dissolved in 0.5% aqueous HEC solution and visually inspected after 60 seconds for material dissolution.

[2] = test system: multidrug resistant malarial strain TM90-C2B (mefloquine, chloroquine, atovaquone, pyrimethamine resistant); test: in vitro antimalarial activity against strain TM90-C2B; format: cell-based; conditions: internal controls of the in vitro assay
Description: (§1) FIG. 2a depicts the synthesis of 4(1H)-quinolones 1 via Conrad-Limpach reaction^24 and conversion to first set of prodrugs (2, 3 and 4) via O-acylation.
(§2) FIG. 4a depicts the synthesis of 4(1H)-quinolones 1 into amino AOCOM ether prodrugs 6 via O-alkylation and subsequent deprotection.

physchem = conditions: pH 7.4, aqueous buffer
[3] = test system: multidrug resistant malarial strain W2 (pyrimethamine and chloroquine resistant); test: in vitro antimalarial activity against strain W2; format: cell-based; conditions: strains W2 and TM90-C2B, strain not specified
Description: as §1, §2

SMILES: CNCCCOC(=O)OCOc1c(-c2ccccc2C)c(C)nc2cc(OC)c(Cl)cc12.Cl [6b, 6-Chloro-7-methoxy-2-methyl-3-(o-tolyl)-4-(((3-(methylammonio)propyloxycarbonyl)oxy)methoxy)quinoline, chloride salt]
- Suppression [%] day 6 PI (P. berghei-GFP parasites; 10 mg/kg PO): 52%
- Day of death (avg) (P. berghei-GFP parasites; 10 mg/kg PO, untreated 13): 13
- Day of death (avg) (P. berghei-GFP parasites; 50 mg/kg PO): 13
- Suppression [%] day 6 PI (P. berghei-GFP parasites; 50 mg/kg PO): 72%
- solubility [1]: > 100 µM

- EC50 [2]: 18.4 µM
SMILES: O=C1C(O)=C([C@H]2CC[C@H](c3ccc(Cl)cc3)CC2)C(=O)c2ccccc21 [ATO, atovaquone, reference compound]

- EC50 [2]: 0.005 µM
SMILES: C[C@H]1[C@@H](O)O[C@@H]2O[C@@]3(C)CC[C@H]4[C@H](C)CC[C@@H]1[C@@]24OO3 [DHA, dihydroartemisinin, reference compound]

- solubility (physchem): 1.2 µM (≈ 0.463 µg/mL)
- in vitro antimalarial activity / EC50 values relative to 1c [3]: comparable to the EC50 values of 1c
SMILES: CCOC(=O)Oc1c(-c2ccccc2C)c(C)nc2cc(OC)c(Cl)cc12 [compound 4, 6-Chloro-7-methoxy-2-methyl-3-(o-tolyl)-4-((ethoxycarbonyl)oxy)quinoline]
